Source: paper PMC10215400 (Antibiotics, 2023)

Assays:
[1] = target: T1, KPC-2 β-lactamase D179N variant (Klebsiella pneumoniae, UniProt Q93LQ9, D178N); experiment: time-based mass spectrometry ([…]); format: binding
[2] = target: T2, KPC-2 β-lactamase D179Y variant (Klebsiella pneumoniae, UniProt Q93LQ9, D178Y); format: binding
[3] = target: KPC-2 β-lactamase (Klebsiella pneumoniae, UniProt Q93LQ9); experiment: stopped-flow hydrolysis progress curves with purified enzyme; format: biochemical
[4] = target: T1, KPC-2 β-lactamase D179N variant; experiment: stopped-flow hydrolysis progress curves with purified enzyme; timed mass spectrometry; format: biochemical
[5] = target: T2, KPC-2 β-lactamase D179Y variant; experiment: time-based mass spectrometry of acyl-complex ([…]); no turnover in stopped-flow; format: binding

T2 sequence (Q93LQ9 25-293 D178Y): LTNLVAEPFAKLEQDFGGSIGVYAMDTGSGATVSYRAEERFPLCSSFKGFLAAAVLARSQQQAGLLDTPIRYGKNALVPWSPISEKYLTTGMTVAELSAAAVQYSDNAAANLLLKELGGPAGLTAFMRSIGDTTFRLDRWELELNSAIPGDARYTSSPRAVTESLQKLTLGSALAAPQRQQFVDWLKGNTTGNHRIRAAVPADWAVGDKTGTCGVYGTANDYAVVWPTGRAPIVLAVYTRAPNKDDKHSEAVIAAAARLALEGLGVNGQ
T1 sequence (Q93LQ9 25-293 D178N): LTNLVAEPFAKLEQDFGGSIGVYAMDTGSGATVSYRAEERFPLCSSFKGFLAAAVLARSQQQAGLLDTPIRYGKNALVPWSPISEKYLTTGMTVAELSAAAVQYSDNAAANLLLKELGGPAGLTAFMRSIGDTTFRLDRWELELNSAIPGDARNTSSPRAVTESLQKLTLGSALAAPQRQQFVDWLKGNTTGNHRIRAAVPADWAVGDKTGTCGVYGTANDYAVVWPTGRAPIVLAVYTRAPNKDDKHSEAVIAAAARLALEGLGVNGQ
Chain of KPC-2 β-lactamase (Q93LQ9 25-293 limits assumed): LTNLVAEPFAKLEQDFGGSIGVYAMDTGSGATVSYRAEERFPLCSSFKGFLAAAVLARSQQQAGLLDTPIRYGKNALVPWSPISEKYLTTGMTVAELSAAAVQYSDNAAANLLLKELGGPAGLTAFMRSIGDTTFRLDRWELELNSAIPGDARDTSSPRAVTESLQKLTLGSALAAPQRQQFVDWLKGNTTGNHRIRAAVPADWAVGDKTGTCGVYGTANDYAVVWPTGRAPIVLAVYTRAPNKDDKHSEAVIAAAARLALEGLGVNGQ

**Q.** `NC(=O)[C@@H]1CC[C@@H]2CN1C(=O)N2OS(=O)(=O)O` [avibactam] was tested. Which “time-based mass spectrometry (1:1)” value [1] did it give?
**A.** Relebactam and avibactam behaved similarly vs. the D179N variant.

**Q.** And the “time-based mass spectrometry of acyl-complex (1:1)” value [2]?
**A.** relebactam is slower to form an acyl complex with the D179Y variant compared to avibactam

**Q.** With `C[C@@H](O)[C@H]1C(=O)N2C(C(=O)O)=C(SCCN=CN)C[C@H]12` [imipenem] as the molecule, how does the “stopped-flow hydrolysis progress curves with purified enzyme” value [3] read?
**A.** KPC-2 (blue line) and the D179N variant (yellow line) both hydrolyzed imipenem

**Q.** And the “stopped-flow hydrolysis progress curves with purified enzyme; timed mass spectro” value [4]?
**A.** KPC-2 (blue line) and the D179N variant (yellow line) both hydrolyzed imipenem

**Q.** And the “time-based mass spectrometry of acyl-complex (1:1); no turnover in stopped-flow” value [5]?
**A.** acyl-complexes with imipenem and ceftazidime with the D179N variant was captured less often compared to the D179Y variant

**Q.** For `O=C(NC1CCNCC1)[C@@H]1CC[C@@H]2CN1C(=O)N2OS(=O)(=O)O` [relebactam], which “time-based mass spectrometry of acyl-complex (1:1)” value [2] is on record?
**A.** relebactam is slower to form an acyl complex with the D179Y variant compared to avibactam
